Where two headings read alike, the source gives them in different places.
Tested on: cancer cell lines
Test: Cancer cell proliferation activity (CellTiterGlo, 72 h)
Type: cell-based
Conditions: 72 h, 72 h, read-out: IC50
Outline: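 Readout is CellTiterGlo luminescence after 72 h compound exposure (0.1% DMSO final), started one day post-seeding, at 37 °C.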

IC50 (5637 cell line (bladder)): 740 nM
IC50 (CLS439 cell line (bladder)): > 50000 nM
IC50 (HS729 cell line (muscle)): 1370 nM
IC50 (HSS78T cell line): > 50000 nM
IC50 (JAR cell line (placenta)): 5830 nM
IC50 (SKMELS cell line): 5100 nM
IC50 (Homo sapiens, 22Rv1, 72 h, 22RV1 cell line (prostate)): 310 nM
IC50 (Homo sapiens, 786-0, 72 h, 786O cell line (kidney)): 2510 nM
IC50 (Homo sapiens, A204, 72 h, A204 cell line (muscle)): 2550 nM
IC50 (Homo sapiens, A549, 72 h, A549 cell line): 530 nM
IC50 (Homo sapiens, A673, 72 h, A673 cell line (bone)): 2810 nM
IC50 (Homo sapiens, A2780, 72 h, A2780 cell line (ovary)): 3500 nM
IC50 (Homo sapiens, A-375, 72 h, A375 cell line (skin)): 3510 nM
IC50 (Homo sapiens, A-431, 72 h, A431 cell line (skin)): 50 nM
IC50 (Homo sapiens, ACHN, ACHN cell line (kidney)): 270 nM
IC50 (Homo sapiens, ASPC1, 72 h, ASPC1 cell line (pancreas)): 160 nM
IC50 (Homo sapiens, BT-20, 72 h, BT20 cell line (breast)): > 50000 nM
IC50 (Homo sapiens, BXPC-3, 72 h, BXPC3 cell line (pancreas)): 20 nM
IC50 (Homo sapiens, C-33-A, C33A cell line (cervical)): 1580 nM
IC50 (Homo sapiens, CAKI-1, 72 h, CAKI1 cell line (kidney)): > 50000 nM
IC50 (Homo sapiens, COLO 205, 72 h, COLO205 cell line (colon)): 310 nM
IC50 (Homo sapiens, COLO-678, 72 h, COLO678 cell line (colon)): > 50000 nM
IC50 (Homo sapiens, Ca-Ski, CASKI cell line (cervical)): 2470 nM
IC50 (Homo sapiens, Caco-2, 72 h, CACO2 cell line (colon)): > 50000 nM
IC50 (Homo sapiens, Calu-6, 72 h, CALU6 cell line (lung)): 1710 nM
IC50 (Homo sapiens, DLD-1, 72 h, DLD1 cell line (colon)): 3740 nM
IC50 (Homo sapiens, DU-145, 72 h, DU145 cell line (prostate)): 1000 nM
IC50 (Homo sapiens, EFO-21, 72 h, EFO21 cell line (ovary)): 2780 nM
IC50 (Homo sapiens, EJ-28, 72 h, EJ28 cell line (bladder)): 1720 nM
IC50 (Homo sapiens, Granta-519, 72 h, GRANTA-519 cell line (hematological)): 650 nM
IC50 (Homo sapiens, HCT-15, 72 h, HCT15 cell line (colon)): 2950 nM
IC50 (Homo sapiens, HCT-116, 72 h, HCT116 cell line (colon)): 5530 nM
IC50 (Homo sapiens, HEK293, 72 h, HEK293 cell line (kidney)): 4350 nM
IC50 (Homo sapiens, HL-60, 72 h, HL-60 cell line (hematological)): 3870 nM
IC50 (Homo sapiens, HT-29, 72 h, HT29 cell line (colon)): 530 nM
IC50 (Homo sapiens, HT-1080, 72 h, HT1080 cell line (connective tissue)): 2690 nM
IC50 (Homo sapiens, HeLa, HELA cell line (cervical)): > 50000 nM
IC50 (Homo sapiens, HepG2, 72 h, HEPG2 cell line (liver)): 770 nM
IC50 (Homo sapiens, IGROV-1, 72 h, IGROV1 cell line (ovary)): 2990 nM
IC50 (Homo sapiens, IMR-90, 72 h, IMR.90 cell line): > 50000 nM
IC50 (Homo sapiens, J82, 72 h, J82 cell line (bladder)): 1000 nM
IC50 (Homo sapiens, JEG-3, 72 h, JEG3 cell line (placenta)): 1170 nM
IC50 (Homo sapiens, JIMT-1, 72 h, JIMT1 cell line (breast)): 7280 nM
IC50 (Homo sapiens, K562, 72 h, K-562 cell line (hematological)): 5830 nM
IC50 (Homo sapiens, Kasumi 1, 72 h, KASUMI-1 cell line (hematological)): > 50000 nM
IC50 (Homo sapiens, L-363, 72 h, L-363 cell line (hematological)): 2800 nM
IC50 (Homo sapiens, LoVo, LOVO cell line (colon)): 510 nM
IC50 (Homo sapiens, MCF7, 72 h, MCF7 cell line (breast)): 170 nM
IC50 (Homo sapiens, MDA-MB-231, 72 h, MDAMB231 cell line (breast)): > 50000 nM
IC50 (Homo sapiens, MDA-MB-435, 72 h, MDAMB435 cell line (skin)): 2440 nM
IC50 (Homo sapiens, MDA-MB-436, 72 h, MDAMB436 cell line (breast)): 420 nM
IC50 (Homo sapiens, MDA-MB-468, 72 h, MDAMB468 cell line (breast)): 2880 nM
IC50 (Homo sapiens, MG-63, 72 h, MG63 cell line (bone)): 1810 nM
IC50 (Homo sapiens, MHH-ES-1, 72 h, MHHES1 cell line (bone)): 2290 nM
IC50 (Homo sapiens, MIA PaCa-2, 72 h, MIAPACA2 cell line (pancreas)): 2430 nM
IC50 (Homo sapiens, MINO, MINO cell line (hematological)): 580 nM
IC50 (Homo sapiens, MV4-11, 72 h, MV4-11 cell line (hematological)): 180 nM
IC50 (Homo sapiens, NCI-H23, 72 h, NCI-H23 cell line (lung)): 1410 nM
IC50 (Homo sapiens, NCI-H82, 72 h, NCIH82 cell line (lung)): 4600 nM
IC50 (Homo sapiens, NCI-H292, 72 h, NCIH292 cell line (lung)): > 50000 nM
IC50 (Homo sapiens, NCI-H460, 72 h, NCIH460 cell line (lung)): 600 nM
IC50 (Homo sapiens, OVCAR-3, 72 h, OVCAR3 cell line (ovary)): 5890 nM
IC50 (Homo sapiens, OVCAR-4, 72 h, OVCAR4 cell line (ovary)): 2790 nM
IC50 (Homo sapiens, PANC-1, 72 h, PANC1 cell line (pancreas)): 4990 nM
IC50 (Homo sapiens, PC-3, 72 h, PC3 cell line (prostate)): 8200 nM
IC50 (Homo sapiens, PLC-PRF-5, 72 h, PLCPRF5 cell line (liver)): 1720 nM
IC50 (Homo sapiens, Panc1005, 72 h, PANC1005 cell line (pancreas)): > 50000 nM
IC50 (Homo sapiens, RD, RD cell line (muscle)): 3490 nM
IC50 (Homo sapiens, Ramos, RAMOS cell line (hematological)): 3140 nM
IC50 (Homo sapiens, SAOS-2, 72 h, SAOS2 cell line (bone)): 1140 nM
IC50 (Homo sapiens, SF-268, 72 h, SF268 cell line (brain)): 1070 nM
IC50 (Homo sapiens, SF-295, 72 h, SF295 cell line (brain)): 1200 nM
IC50 (Homo sapiens, SK-BR-3, 72 h, SKBR3 cell line (breast)): 40 nM
IC50 (Homo sapiens, SK-HEP1, 72 h, SKHEP1 cell line (liver)): 1360 nM
IC50 (Homo sapiens, SK-LMS-1, 72 h, SKLMS1 cell line (uterus)): 1140 nM
IC50 (Homo sapiens, SK-MEL-28, 72 h, SKMEL28 cell line (skin)): > 50000 nM
IC50 (Homo sapiens, SK-N-AS, SKNAS cell line (brain)): > 50000 nM
IC50 (Homo sapiens, SK-N-SH, SKNSH cell line (brain)): > 50000 nM
IC50 (Homo sapiens, SK-OV-3, 72 h, SKOV3 cell line (ovary)): 810 nM
IC50 (Homo sapiens, SNB-75, 72 h, SNB75 cell line (brain)): > 50000 nM
IC50 (Homo sapiens, SU-DHL10, 72 h, SU-DHL-10 cell line (hematological)): 4950 nM
IC50 (Homo sapiens, SU-DHL-6, 72 h, SU-DHL-6 cell line (hematological)): 5490 nM
IC50 (Homo sapiens, SW-620, 72 h, SW620 cell line (colon)): 390 nM
IC50 (Homo sapiens, T-24, 72 h, T24 cell line (bladder)): 2840 nM
IC50 (Homo sapiens, TE-671, 72 h, TE671 cell line (muscle)): 5920 nM
IC50 (Homo sapiens, THP-1, 72 h, THP-1 cell line (hematological)): 1690 nM
IC50 (Homo sapiens, U2OS, U2OS cell line (bone)): > 50000 nM
IC50 (Homo sapiens, U-87 MG, U87MG cell line (brain)): > 50000 nM
IC50 (Homo sapiens, UMUC3, 72 h, UMUC3 cell line (bladder)): 2450 nM
IC50 (Homo sapiens, UO-31, 72 h, UO31 cell line (kidney)): > 50000 nM
IC50 (Homo sapiens, WSU-NHL, WSU-NHL cell line (hematological)): 610 nM
IC50 (MT-3, 72 h, MT3 cell line (breast)): 900 nM
IC50 (NCI-H358M, NCIH358M cell line (lung)): 1340 nM
IC50 (PBMC, PBMC (hematological)): 4980 nM
IC50 (RD-ES, RDES cell line (bone)): 1290 nM
Structure (SMILES): C[C@]1(CO)O[C@@H](n2cc(F)c(=O)[nH]c2=O)C[C@@H]1O [Cpd. No. 105, 5-fluoro-1-((2R,4S,5R)-4-hydroxy-5-(hydroxymethyl)-5-methyltetrahydrofuran-2-yl)pyrimidine-2,4(1H,3H)-dione]

— patent US20250215039A1, “NUCLEOSIDES FOR TREATING CANCER” (PRIMEFOUR THERAPEUTICS, INC., priority 2022, published 2025)
